The data set is described as follows: ASTM D 1929 ignition temperature test, polypropylene beads with and without Deltamethrin. The settings on record: polypropylene beads with 11 wt % Deltamethrin and 2 wt % Bumetrizole vs pure polypropylene beads; air velocity 25 mm/s; FIG. 1. It counts as physicochemical. An excerpt: ASTM D 1929: Standard Test Method for Determining Ignition Temperature of Plastics
The objective of this method is to determine at which temperature plastic material (sheet or granules) release flammable gases and vapors to such an extent, that an explosive mixture with air can be formed, that can be ignited with a pilot flame.
This “flash-point” of plastics is an important safety characteristic, which can be used to assess explosion and fire risk in plant where plastic material is processed, handled or stored. The objective of this method is to determine the temperature at which gases and vapors released from plastic sheets or granules spontaneously catch fire, i.e. without contact to an external ignition source. The Self-Ignition Temperature is relevant for the assessment of ignition risks due to hot surfaces in plant where plastic material is processed, e.g. in extruders. The tests are carried out by exposing the test item (sample) in an oven to a controlled stream of hot, fresh air. Ignition is detected by monitoring the temperature of the sample. For flash ignition, a pilot flame above the exhaust of the oven is used. For self-ignition test, no external ignition source is applied. The test are carried out in isothermal mode, i.e. at constant temperature. Several trials, at different temperatures are necessary to find the lowest temperature, at which ignition does occur. […]

In the case of `CC1(C)[C@H](C(=O)O[C@H](C#N)c2cccc(Oc3ccccc3)c2)[C@@H]1C=C(Br)Br` [Deltamethrin], the flash ignition temperature entry was “higher flash ignition temperature” and the spontaneous ignition temperature entry was “higher spontaneous ignition temperature”.

(Values after patent US20150274932A1, “USE OF BIOCIDES AS FLAME RETARDANTS” (BAYER CROPSCIENCE AG, priority 2012, published 2015).)
